Laboratory results taken from US8785401B2, “Methods for treating diseases having an inflammatory component related to phospholipase A2” (Philadelphia Health & Education Corporation, priority 2005, dated 2014).

System: sPLA2
Conditions: CHEC-9 0.4 μM, LY31127 5.0 μM, whole blood, two 90 min periods at 4°

**Q.** How did the “comparison of sPLA2 inhibition by the inhibitors alone and in sequence” value turn out when CCc1c(CC(N)=O)c2cc(OCCCP(=O)(O)O)ccc2n1Cc1ccccc1 [LY311727] was run?
**A.** equally effective inhibitors
